Test results reported in patent US12180189B2, “Proteostasis regulators” (Kineta, Inc., priority 2011, dated 2024).
pIC50: −log10 of the molar value.

target: USP14 (Homo sapiens, UniProt P54578); experiment: USP14 inhibition (methodology of B. H. Lee et al. Nature 2010); format: biochemical; details: average value from three experimental determinations
Method: Known USP14 inhibitor IU1 (1-(1-(4-fluorophenyl)-2,5-dimethyl-1H-pyrrol-3-yl)-2-(pyrrolidin-1-yl)ethanone; B. H. Lee et al. Nature 2010, 467 (9), 179) was used as a comparative reference agent. The IC50 values in the Table below represent the average value from three experimental determinations. In the table below, “A” represents an IC50 of 0 to 5 uM, “B” represents an IC50 of 5 to 10 uM, and “C” represents and IC50 of greater than 10 uM.

Sequence of USP14 (P54578 whole entry): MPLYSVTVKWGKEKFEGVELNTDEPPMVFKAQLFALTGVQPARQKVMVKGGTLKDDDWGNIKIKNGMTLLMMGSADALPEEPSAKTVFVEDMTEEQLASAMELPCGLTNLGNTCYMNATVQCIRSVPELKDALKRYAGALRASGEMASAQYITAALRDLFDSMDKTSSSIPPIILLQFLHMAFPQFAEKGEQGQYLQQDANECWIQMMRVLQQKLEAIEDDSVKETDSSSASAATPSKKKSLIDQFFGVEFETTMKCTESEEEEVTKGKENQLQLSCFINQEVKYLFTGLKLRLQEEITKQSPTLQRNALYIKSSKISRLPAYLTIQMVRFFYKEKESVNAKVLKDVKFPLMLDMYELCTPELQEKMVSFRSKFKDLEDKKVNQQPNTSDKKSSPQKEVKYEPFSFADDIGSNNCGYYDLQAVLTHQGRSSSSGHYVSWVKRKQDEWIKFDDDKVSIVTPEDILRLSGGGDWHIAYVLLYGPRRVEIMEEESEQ
Sequence of USP14 (Q13200 whole entry partner): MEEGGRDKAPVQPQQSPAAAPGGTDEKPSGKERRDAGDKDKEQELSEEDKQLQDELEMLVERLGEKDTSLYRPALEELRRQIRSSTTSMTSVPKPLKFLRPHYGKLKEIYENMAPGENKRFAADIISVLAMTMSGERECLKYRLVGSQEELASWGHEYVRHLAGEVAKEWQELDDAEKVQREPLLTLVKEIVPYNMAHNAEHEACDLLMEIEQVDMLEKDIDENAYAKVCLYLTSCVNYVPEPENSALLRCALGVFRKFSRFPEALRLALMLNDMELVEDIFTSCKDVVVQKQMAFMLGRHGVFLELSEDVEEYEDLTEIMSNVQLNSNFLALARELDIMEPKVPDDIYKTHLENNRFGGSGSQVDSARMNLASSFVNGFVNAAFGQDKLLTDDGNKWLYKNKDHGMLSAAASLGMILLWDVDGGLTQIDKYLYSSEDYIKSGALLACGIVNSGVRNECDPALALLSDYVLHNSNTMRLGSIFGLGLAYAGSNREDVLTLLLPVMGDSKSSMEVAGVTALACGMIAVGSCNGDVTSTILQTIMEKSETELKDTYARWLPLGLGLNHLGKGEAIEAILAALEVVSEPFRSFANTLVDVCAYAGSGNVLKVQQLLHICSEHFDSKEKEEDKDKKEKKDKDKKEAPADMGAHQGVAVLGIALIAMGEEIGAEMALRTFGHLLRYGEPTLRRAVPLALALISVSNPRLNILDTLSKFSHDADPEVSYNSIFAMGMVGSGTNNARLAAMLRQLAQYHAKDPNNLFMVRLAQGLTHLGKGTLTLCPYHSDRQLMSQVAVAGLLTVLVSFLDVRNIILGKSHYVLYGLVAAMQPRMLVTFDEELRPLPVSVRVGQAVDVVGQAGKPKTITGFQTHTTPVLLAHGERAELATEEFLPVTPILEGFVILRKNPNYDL
Sequence of USP14 (P35998 whole entry partner): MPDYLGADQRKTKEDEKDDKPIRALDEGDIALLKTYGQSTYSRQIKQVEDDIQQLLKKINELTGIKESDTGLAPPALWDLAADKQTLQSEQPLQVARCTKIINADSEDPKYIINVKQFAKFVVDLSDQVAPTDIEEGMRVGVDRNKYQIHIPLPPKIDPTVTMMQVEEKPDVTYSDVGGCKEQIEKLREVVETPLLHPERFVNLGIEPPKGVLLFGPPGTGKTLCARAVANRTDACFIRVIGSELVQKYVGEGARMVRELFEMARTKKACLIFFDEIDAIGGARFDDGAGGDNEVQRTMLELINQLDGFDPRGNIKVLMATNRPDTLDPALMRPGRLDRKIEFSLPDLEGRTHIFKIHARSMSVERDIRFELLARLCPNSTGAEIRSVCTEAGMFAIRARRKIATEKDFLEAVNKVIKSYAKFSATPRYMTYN

Q: `Cc1cc(C(=O)CC2CCCC2)c(C)n1-c1ccc(Cl)cc1` [Compound A1, 1-[1-(4-Chloro-phenyl)-2,5-dimethyl-1H-pyrrol-3-yl]-2-cyclopentyl-ethanone] was tested. Which pIC50 did it give?
A: < 5.00

Q: With `Cc1cc(C(=O)CC2CCCCC2)c(C)n1-c1ccc(Cl)cc1` [Compound A2, 1-[1-(4-Chloro-phenyl)-2,5-dimethyl-1H-pyrrol-3-yl]-2cyclohexyl-ethanone] as the compound, how does the pIC50 read?
A: < 5.00

Q: How did the pIC50 turn out when `Cc1cc(C(=O)C(F)F)c(C)n1-c1ccc(Cl)cc1` [Compound A3, 1-(1-(4-chlorophenyl)-2,5-dimethyl-1H-pyrrol-3-yl)-2,2-difluoroethanone] was run?
A: < 5.00

Q: How did the pIC50 turn out when `Cc1cc(C(=O)CC(F)(F)F)c(C)n1-c1ccc(Cl)cc1` [Compound A4, 1-(1-(4-chlorophenyl)-2,5-dimethyl-1H-pyrrol-3-yl)-3,3,3-trifluoropropan-1-one] was run?
A: < 5.00

Q: `Cc1cc(C(=O)C(=O)O)c(C)n1-c1ccc(Cl)cc1` [Compound A5, 2-(1-(4-chlorophenyl)-2,5-dimethyl-1H-pyrrol-3-yl)-2-oxoacetic acid] was tested. Which pIC50 did it give?
A: < 5.00

Q: How did the pIC50 turn out when `Cc1cc(C(=O)C(=O)N2CCC(F)CC2)c(C)n1-c1ccc(Cl)cc1` [Compound A7, 1-(1-(4-chlorophenyl)-2,5-dimethyl-1H-pyrrol-3-yl)-2-(4-fluoropiperidin-1-yl)ethane-1,2-dione] was run?
A: < 5.00

Q: How did the pIC50 turn out when `Cc1cc(C(=O)CCl)c(C)n1-c1ccc(Cl)cc1` [Compound A8, 2-chloro-1-(1-(4-chlorophenyl)-2,5-dimethyl-1H-pyrrol-3-yl)ethanone] was run?
A: < 5.00

Q: With `Cc1cc(C(=O)Cn2cccc2)c(C)n1-c1ccc(Cl)cc1` [Compound A9, 1-[1-(4-Chloro-phenyl)-2,5-dimethyl-1H-pyrrol-3-yl]-2-pyrrol-1-yl-ethanone] as the compound, how does the pIC50 read?
A: < 5.00

Q: How did the pIC50 turn out when `Cc1cc(C(=O)Cn2ccnc2)c(C)n1-c1ccc(Cl)cc1` [Compound A10, 1-[1-(4-Chloro-phenyl)-2,5-dimethyl-1H-pyrrol-3-yl]-2-imidazol-1-yl-ethanone] was run?
A: < 5.00

Q: `Cc1cc(C(=O)CN2CCCCC2)c(C)n1C` [Compound A11, 2-(piperidin-1-yl)-1-(1,2,5-trimethyl-1H-pyrrol-3-yl)ethanone] was tested. Which pIC50 did it give?
A: < 5.00

Q: With `Cc1cc(C(=O)CN2CCCC2)c(C)n1C` [Compound A12, 2-(pyrrolidin-1-yl)-1-(1,2,5-trimethyl-1H-pyrrol-3-yl)ethanone] as the compound, how does the pIC50 read?
A: < 5.00

Q: With `Cc1c(C(=O)CN2CCCC2)cnn1-c1ccc(Cl)cc1` [Compound A14, 1-[1-(4-Chloro-phenyl)-5-methyl-1H-pyrazol-4-yl]-2-pyrrolidin-1-yl-ethanone] as the compound, how does the pIC50 read?
A: > 5.30

Q: How did the pIC50 turn out when `Cc1nn(-c2ccc(Cl)cc2)c(C)c1C(=O)CN1CCCCC1` [Compound A18, 1-[1-(4-Chloro-phenyl)-3,5-dimethyl-1H-pyrazol-4-yl]-2-piperidin-1-yl-ethanone] was run?
A: 5.00 to 5.30

Q: `Cc1nn(-c2ccc(Cl)cc2)c(C)c1C(=O)CN1CCCC1` [Compound A19, 1-[1-(4-Chloro-phenyl)-3,5-dimethyl-1H-pyrazol-4-yl]-2-Pyrrolidine-1-yl-ethanone] was tested. Which pIC50 did it give?
A: > 5.30

Q: `Cc1nn(-c2ccc(Cl)cc2)c(C)c1C(=O)CN(C)C1CC1` [Compound A20, 1-[1-(4-Chloro-phenyl)-3,5-dimethyl-1H-pyrazol-4-yl]-2-(Cyclopropyl-methyl-amino)-ethanone] was tested. Which pIC50 did it give?
A: < 5.00

Q: How did the pIC50 turn out when `Cc1nn(-c2ccc(Cl)cc2)c(C)c1C(=O)CC1CCCCC1` [Compound A21, 1-(1-(4-chlorophenyl)-3,5-dimethyl-1H-pyrazol-4-yl)-2-cyclohexylethanone] was run?
A: < 5.00

Q: `O=C(CN1CCCCC1)c1cnn(-c2ccc(Cl)cc2)c1` [Compound A22, 1-[1-(4-Chloro-phenyl)-1H-pyrazol-4-yl]-2-piperidin-1-yl-ethanone] was tested. Which pIC50 did it give?
A: < 5.00

Q: `O=C(CN1CCCC1)c1cnn(-c2ccc(Cl)cc2)c1` [Compound A23, 1-[1-(4-Chloro-phenyl)-1H-pyrazol-4-yl]-2-pyrrolidin-1-yl-ethanone] was tested. Which pIC50 did it give?
A: < 5.00

Q: How did the pIC50 turn out when `CN(CC(=O)c1cnn(-c2ccc(Cl)cc2)c1)C1CC1` [Compound A24, 1-[1-(4-Chloro-phenyl)-1H-pyrazol-4-yl]-2-(cyclopropyl-methyl-amino)-ethanone] was run?
A: < 5.00

Q: How did the pIC50 turn out when `Cc1oc(-c2ccc(Cl)cc2)nc1C(=O)CN1CCCCC1` [Compound A25, 1-[2-(4-Chloro-phenyl)-5-methyl-oxazol-4-yl]-2-piperidin-1-yl-ethanone] was run?
A: < 5.00

Q: `O=C(CN1CCCCC1)c1cc(-c2ccc(Cl)cc2)ns1` [Compound A26] was tested. Which pIC50 did it give?
A: < 5.00

Q: `Cc1sc(-c2ccc(Cl)cc2)cc1C(=O)CN1CCCCC1` [Compound A27, 1-(5-(4-chlorophenyl)-2-methylthiophen-3-yl)-2-(piperidin-1-yl)ethanone] was tested. Which pIC50 did it give?
A: < 5.00

Q: How did the pIC50 turn out when `Cc1sc(-c2ccc(Cl)cc2)cc1C(=O)CN1CCC(F)CC1` [Compound A28, 1-(5-(4-chlorophenyl)-2-methylthiophen-3-yl)-2-(4-fluoropiperidin-1-yl)ethanone] was run?
A: < 5.00

Q: With `Cc1sc(-c2ccc(Cl)cc2)cc1C(=O)CN1CCC(O)CC1` [Compound A29, 1-(5-(4-chlorophenyl)-2-methylthiophen-3-yl)-2-(4-hydroxypiperidin-1-yl)ethanone] as the compound, how does the pIC50 read?
A: < 5.00

Q: How did the pIC50 turn out when `Cc1c(C(=O)CN2CCCC2)nnn1-c1ccc(F)cc1` [Compound A30, 1-(1-(4-fluorophenyl)-5-methyl-1H-1,2,3-triazol-4-yl)-2-(pyrrolidin-1-yl)ethanone] was run?
A: < 5.00

Q: With `O=C(CN1CCCC1)N1CCN(c2ccc(Cl)cc2)CC1` [Compound A31, 1-(4-(4-chlorophenyl)piperazin-1-yl)-2-(pyrrolidin-1-yl)ethanone] as the compound, how does the pIC50 read?
A: < 5.00

Q: How did the pIC50 turn out when `O=C(CN1CCCCC1)N1CCN(c2ccc(F)cc2)CC1` [Compound A32, 1-(4-(4-fluorophenyl)piperazin-1-yl)-2-(piperidin-1-yl)ethanone] was run?
A: < 5.00

Q: How did the pIC50 turn out when `Cc1cc(C(=O)C(C)N2CCC(C(N)=O)CC2)c(C)n1-c1ccc(Cl)cc1` (stereo not shown) [Compound A44] was run?
A: < 5.00

Q: `CNC(=O)C1CCN(C(C)C(=O)c2cc(C)n(-c3ccc(Cl)cc3)c2C)CC1` (stereo not shown) [Compound A45] was tested. Which pIC50 did it give?
A: < 5.00

Q: With `COC(=O)C1CCN(C(C)C(=O)c2cc(C)n(-c3ccc(Cl)cc3)c2C)CC1` (stereo not shown) [Compound A46] as the compound, how does the pIC50 read?
A: < 5.00

Q: `Cc1cc(C#N)c(C)n1-c1ccc(Cl)cc1` [Compound A47] was tested. Which pIC50 did it give?
A: < 5.00
